Laboratory results from ChEMBL document CHEMBL3045451, “Isolation and characterization of fungal inhibitors from Epichloë festucae” (2000).

Tests used:
Laetisaria fuciformis = assay: Fungicidal activity against Laetisaria fuciformis assessed as inhibition of fungal growth at 10 to 1000 mg/L; format: functional, organism-based
Rhizoctonia solani = assay: Fungicidal activity against Rhizoctonia solani assessed as inhibition of fungal growth at 10 to 1000 mg/L; format: functional, organism-based
Cryphonectria parasitica [1] = assay: Fungicidal activity against Cryphonectria parasitica assessed as inhibition of fungal growth at 25 ug after 7 days; format: functional; conditions: 168 h, read-out: DIZ
Magnaporthiopsis poae = assay: Fungicidal activity against Magnaporthe poae assessed as inhibition of fungal growth at 10 to 1000 mg/L; format: functional, organism-based
Cryphonectria parasitica [2] = assay: Fungicidal activity against Cryphonectria parasitica assessed as inhibition of fungal growth at 50 ug after 7 days; format: functional; conditions: 168 h, read-out: DIZ
Cryphonectria parasitica [3] = assay: Fungicidal activity against Cryphonectria parasitica assessed as inhibition of fungal growth at 100 ug after 7 days; format: functional; conditions: 168 h, read-out: DIZ
Cryphonectria parasitica [4] = assay: Fungicidal activity against Cryphonectria parasitica assessed as inhibition of fungal growth at 12.5 ug after 7 days; format: functional; conditions: 168 h, read-out: DIZ

Row | SMILES | growth inhibition (GI) (Laetisaria fuciformis) | growth inhibition (GI) (Rhizoctonia solani) | zone of inhibition at 25 µg/disc (Cryphonectria parasitica [1]) | growth inhibition (GI) (Magnaporthiopsis poae) | zone of inhibition at 50 µg/disc (Cryphonectria parasitica [2]) | zone of inhibition at 100 µg/disc (Cryphonectria parasitica [3]) | zone of inhibition at 12.5 µg/disc (Cryphonectria parasitica [4])
1 | OCCc1c[nH]c2ccccc12 [TRYPTOPHOL] | Dose-dependent effect | Dose-dependent effect | 9 mm | Dose-dependent effect | 11 mm | 14 mm | 7 mm
2 | CC(C)=CCC[C@@](C)(O)[C@H]1CC[C@](C)(O)[C@@H]1C [CYCLONERODIOL] |  |  | 0 mm |  | 0 mm | 13 mm | 0 mm
3 | CC(=O)NC(C)=O [DIACETAMIDE] |  |  | 7 mm |  | 10 mm | 14 mm | 3 mm
4 | O=C(O)Cc1c[nH]c2ccccc12 [INDOLE-3-ACETIC ACID] | Dose-dependent effect | Dose-dependent effect | 14 mm | Dose-dependent effect | 16 mm | 21 mm | 12 mm
5 | COC(=O)c1c[nH]c2ccccc12 |  |  | 6 mm |  | 8 mm | 11 mm | 4 mm
6 | O=Cc1c[nH]c2ccccc12 [3-FORMYLINDOLE] |  |  | 10 mm |  | 13 mm | 15 mm | 7 mm
